Test results taken from patent publication US20230077514A1, “METHODS FOR MODULATING CALORIE CONSUMPTION” (Duke University, priority 2020, published 2023).

What was measured:
[1] = tested on: enteroendocrine cells and nodose ganglia neurons; conditions: 10 mM glucose; cited from earlier work
cervical vagus nerve = assay: Whole nerve electrophysiology of the cervical vagus during duodenal sugar perfusion; format: in vivo, mice; conditions: wild-type mice; sucrose 300 mM, D-glucose 150 mM, fructose 150 mM, galactose 150 mM, maltodextrin 8%, α-MGP 150 mM, sucralose 15 mM, acesulfame K 15 mM, saccharin 15 mM
Description: FIG. 1. […] Model: sugars are perfused into the duodenal lumen while nerve activity is recorded from the cervical vagus of anesthetized wild-type mice.
The proximal duodenum was perfused with sugars, thus bypassing any gustatory or gastric activation. Sugars were tested based on the following properties: both caloric content and sweet taste (sucrose [300 mM], D-glucose [150 mM], […], galactose [150 mM]), calorie-only (maltodextrin [8%], alpha-methylglucopyranoside (α-MGP) [150 mM]), or taste-only (sucralose [15 mM], acesulfame-K [15 mM], saccharin [15 mM]) (FIG. 1, FIG. 2, FIG. 3, FIG. 4).

vagal nodose neurons = assay: Cultured dissociated vagal neurons stimulated with sugars; format: cell-based; conditions: D-glucose 20 mM; for response of vagal nodose neurons cultured alone: sucralose 2 mM, maltodextrin 1%, n = 59 neurons
Description: (§1) Dissociated vagal neurons were cultured to test whether the neurons are able to sense the different sugars. The neurons were stimulated with three consecutive sugars (D-glucose [20 mM], sucralose [2 mM], and maltodextrin [1%]) followed by KCI [50 mM] as an activity control. […] To determine how individual neuropod cells respond to taste and calorie properties, cultured Cck_tdTomato+ cells were stimulated with the same sugars, counterbalancing for order effect, and calcium activity was recorded using KCI [50 mM] as a final activity control. Of the 49 cells imaged, 18.4% responded to all types of sugar, 36.7% responded to only D-glucose, 20.4% to only maltodextrin, and 12.2% to only sucralose (n = 49 cells, n = 3 mice; FIG. 13). […] Cck_tdTomato+ cells were co-cultured with nodose neurons to determine whether neuropod cells were transducing different sugar stimuli onto the same vagal neurons. Patch-clamp electrophysiology, in voltage-clamp, was used to record neuron activity in response to neuropod cell exposure to D-glucose [20 mM] and sucralose [2 mM] in alternating order (FIG. 14). From the 18 pairs recorded, neuropod cells transduced the sugar stimuli and elicited excitatory post-synaptic currents in connected neurons in response to both stimuli in 6 pairs, to only D-glucose in 8 pairs, and to sucralose alone in 4 pairs (FIG. 14). Thus, neuropod cells are heterogenous in their response and transduction of caloric and non-caloric stimuli to vagal neurons.

[2] = tested on: nodose neurons co-cultured with Cck_tdTomato+ cells; assay: Patch-clamp electrophysiology of nodose neurons co-cultured with Cck_tdTomato+ cells; format: cell-based; conditions: D-glucose 20 mM, sucralose 2 mM; for peak excitatory post-synaptic currents, D-glucose vs sucralose: n = 18 pairs; for co-culture pairs responding to this stimulus only / co-culture pairs with excitatory post-synaptic currents in response to only this stimulus: of 18 pairs
Description: as §1

Cck_tdTomato+ cells = assay: Calcium activity of cultured Cck_tdTomato+ cells stimulated with sugars; format: cell-based, mice; conditions: D-glucose 20 mM, sucralose 2 mM, maltodextrin 1%; 49 cells
Description: as §1, with “Thus, neuropod cells are heterogenous in their response and transduction of caloric and non-caloric stimuli to vagal neurons.” left out

[3] = tested on: murine small intestinal organoids; assay: Glutamate release assay on murine small intestinal organoids; format: cell-based, mouse; conditions: sucrose 300 mM, α-MGP 150 mM, sucralose 15 mM; PBS control 2.632 ± 1.280
Description: Slc5a1+ Cck-GFP cells express transcripts for the vesicular glutamate transporters Slc17a6, Slc17a7, Slc17a8 and the excitatory neurotransmitter transporters Slc1a1, Slc1a2, and Slc1a3 (FIG. 4). […] A glutamate release assay was performed on murine small intestinal organoids to determine if glutamate release was stimuli specific (FIG. 24-left). α-MGP was used for a caloric stimulus with no sweet taste, because it is not metabolized once it enters the cell and thus allowed for isolation of cell entry. After nutrient stimulation, the glutamate concentration in the supernatant was 2.632 ± 1.280 ng/µL for PBS control, 13.460 ± 1.724 ng/µL for sucrose [300 mM], 18.183 ± 7.904 ng/µL for α-MGP [150 mM], and 6.053 ± 1.169 ng/µL for sucralose [15 mM].

duodenal Cck cells = assay: Vagal recording with intraluminal 532 nm laser silencing of duodenal Cck (neuropod) cells; format: in vivo; conditions: Cck_Halo mice; sucrose 300 mM, α-mgp 150 mM, sucralose 15 mM
Description: FIG. 9. Model: intraluminal 532 nm laser activates NpH3 chloride channels to silence duodenal Cck cells in CckCRE_NpH3 mice.
Using whole nerve electrophysiology of the cervical vagus nerve, it was confirmed that vagal activity increases in the presence of luminal sugars. Kaelberer et al., Science 361 (6408) (2018). The proximal duodenum was perfused with sugars, thus bypassing any gustatory or gastric activation. Sugars were tested based on the following properties: both caloric content and sweet taste (sucrose [300 mM], D-glucose [150 mM], fructose [150 mM], galactose [150 mM]), calorie-only (maltodextrin [8%], alpha-methylglucopyranoside (α-MGP) [150 mM]), or taste-only (sucralose [15 mM], acesulfame-K [15 mM], saccharin [15 mM]) (FIG. 1, FIG. 2, FIG. 3, FIG. 4). […] Intraluminal application of the 532 nm laser eliminated the vagal response to sucrose [300 mM], α-mgp [150 mM], and sucralose [15 mM] (n ≥ 5, p < 0.001) (FIG. 10 and FIG. 11; laser activation and wild-type controls). Thus, neuropod cells are required to sense both the calorie and taste properties of sugar and communicate these signals onto vagal neurons.
Cck neuropod cells in the duodenum express receptors for fatty acids (FIG. 69), analyzed by bulk sequencing Cck-positive and Cck-negative epithelial cells in the duodenum of CckGFP mice. Thus, CCK cells in the duodenum may signal the presence of fatty acids to the vagus nerve. To test this, the silencing optogenetic channel was expressed in Cck cells of mice. […] In the duodenum, there is overlap in cells expressing CCK and the vesicular glutamate transporter 1 (Vglut1), required for release of the neurotransmitter glutamate. To test whether glutamate is required as a signaling molecule for fat transduction to the vagus nerve, a cocktail of glutamate receptor inhibitors was perfused through the duodenum of wild type mice. Blockade of ionotropic and metabotropic glutamate receptors blocked vagal firing elicited by glutamate (FIG. 71). […] In an initial baseline test, mice freely explore an arena for 20 minutes, during which their position in the arena measured. […]

O=C[C@H](O)[C@@H](O)[C@H](O)[C@H](O)CO [D-glucose]
activation of a nodose neuron by itself [1]: did not activate | response of connected neuron to stimulus applied to the enteroendocrine cell [1]: induced excitatory post-synaptic potentials and action potential spikes | vagal response (firing) to intraduodenal sugar vs baseline (cervical vagus nerve): responds significantly | response of vagal nodose neurons cultured alone (vagal nodose neurons): do not respond | neurons with a (small) response (vagal nodose neurons; 59 neurons): 2 of 59 | peak excitatory post-synaptic currents, D-glucose vs sucralose [2]: not significantly different | co-culture pairs responding to this stimulus only [2]: 44.4% | co-culture pairs with excitatory post-synaptic currents in response to only this stimulus [2]: 8 pairs | cells responding to only this sugar (Cck_tdTomato+ cells): 36.7%

OC[C@H]1O[C@H](O[C@]2(CCl)O[C@H](CCl)[C@@H](O)[C@@H]2O)[C@H](O)[C@@H](O)[C@H]1Cl [sucralose]
glutamate concentration in the supernatant after stimulation [3]: 6.053 ± 1.169 ng/µL | vagal response (firing) to intraduodenal sugar vs baseline (cervical vagus nerve): responds significantly | response of vagal nodose neurons cultured alone (vagal nodose neurons): do not respond | vagal response with Cck cells silenced by 532 nm laser (duodenal Cck cells): eliminated | peak excitatory post-synaptic currents, D-glucose vs sucralose [2]: not significantly different | co-culture pairs responding to this stimulus only [2]: 22.2% | co-culture pairs with excitatory post-synaptic currents in response to only this stimulus [2]: 4 pairs | cells responding to only this sugar (Cck_tdTomato+ cells): 12.2%
